Test results from ChEMBL document CHEMBL4024706 (Eur J Med Chem, 2017).

Key:
[1] = biological target: Tyrosine-protein kinase Mer (Homo sapiens) (UniProt Q12866); experiment: Inhibition of wild-type human partial length MERTK (R557 to L884 residues) expressed in bacterial expression system assessed as residual activity at 1 uM by Kinomescan method relative to control
[2] = biological target: Tyrosine-protein kinase BTK (Homo sapiens, UniProt Q06187); experiment: Inhibition of full length recombinant human N-terminal His tagged […] expressed in baculovirus infected Sf9 insect cells using poly (Glu,Tyr)4:1 as substrate pretreated for 60 mins followed by substrate addition after 1 hr by ADP-Glo luminescence assay
[3] = biological target: Activin receptor type-1B (Homo sapiens) (UniProt P36896); experiment: Inhibition of wild-type human ACVR1B (S187 to I505 residues) expressed in bacterial expression system assessed as residual activity at 1 uM by Kinomescan method relative to control
[4] = biological target: Non-receptor tyrosine-protein kinase TNK1 (Homo sapiens) (UniProt Q13470); experiment: Inhibition of wild-type human full length TNK1 (M1 to P661 residues) expressed in bacterial expression system assessed as residual activity at 1 uM by Kinomescan method relative to control
Non-receptor tyrosine-protein kinase TNK1 (Homo sapiens), sequence (Q13470 whole entry, the tested form may be a part): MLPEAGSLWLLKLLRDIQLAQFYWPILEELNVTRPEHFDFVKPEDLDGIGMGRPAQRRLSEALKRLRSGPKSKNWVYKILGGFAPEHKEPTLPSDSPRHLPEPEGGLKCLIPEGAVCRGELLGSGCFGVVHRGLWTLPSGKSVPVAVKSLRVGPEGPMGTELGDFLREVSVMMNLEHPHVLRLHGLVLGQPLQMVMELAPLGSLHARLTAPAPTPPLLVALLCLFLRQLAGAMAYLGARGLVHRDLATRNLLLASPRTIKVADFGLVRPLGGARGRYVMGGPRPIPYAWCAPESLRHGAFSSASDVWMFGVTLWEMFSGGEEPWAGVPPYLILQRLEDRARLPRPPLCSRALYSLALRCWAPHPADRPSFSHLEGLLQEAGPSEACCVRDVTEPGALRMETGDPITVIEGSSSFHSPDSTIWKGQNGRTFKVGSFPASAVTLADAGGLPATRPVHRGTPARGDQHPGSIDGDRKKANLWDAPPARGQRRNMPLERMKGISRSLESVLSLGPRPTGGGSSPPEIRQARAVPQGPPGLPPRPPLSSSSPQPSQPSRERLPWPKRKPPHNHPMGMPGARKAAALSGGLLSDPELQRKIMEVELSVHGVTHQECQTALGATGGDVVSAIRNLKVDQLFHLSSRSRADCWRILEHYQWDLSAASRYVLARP

[5] = biological target: Phosphatidylinositol 3-kinase C2 domain-containing subunit gamma (Homo sapiens) (UniProt O75747); experiment: Inhibition of wild-type human partial length PIK3C2G (M1 to I1446 residues) expressed in mammalian expression system assessed as residual activity at 1 uM by Kinomescan method relative to control
Phosphatidylinositol 3-kinase C2 domain-containing subunit gamma (Homo sapiens), sequence (O75747 whole entry, the tested form may be a part): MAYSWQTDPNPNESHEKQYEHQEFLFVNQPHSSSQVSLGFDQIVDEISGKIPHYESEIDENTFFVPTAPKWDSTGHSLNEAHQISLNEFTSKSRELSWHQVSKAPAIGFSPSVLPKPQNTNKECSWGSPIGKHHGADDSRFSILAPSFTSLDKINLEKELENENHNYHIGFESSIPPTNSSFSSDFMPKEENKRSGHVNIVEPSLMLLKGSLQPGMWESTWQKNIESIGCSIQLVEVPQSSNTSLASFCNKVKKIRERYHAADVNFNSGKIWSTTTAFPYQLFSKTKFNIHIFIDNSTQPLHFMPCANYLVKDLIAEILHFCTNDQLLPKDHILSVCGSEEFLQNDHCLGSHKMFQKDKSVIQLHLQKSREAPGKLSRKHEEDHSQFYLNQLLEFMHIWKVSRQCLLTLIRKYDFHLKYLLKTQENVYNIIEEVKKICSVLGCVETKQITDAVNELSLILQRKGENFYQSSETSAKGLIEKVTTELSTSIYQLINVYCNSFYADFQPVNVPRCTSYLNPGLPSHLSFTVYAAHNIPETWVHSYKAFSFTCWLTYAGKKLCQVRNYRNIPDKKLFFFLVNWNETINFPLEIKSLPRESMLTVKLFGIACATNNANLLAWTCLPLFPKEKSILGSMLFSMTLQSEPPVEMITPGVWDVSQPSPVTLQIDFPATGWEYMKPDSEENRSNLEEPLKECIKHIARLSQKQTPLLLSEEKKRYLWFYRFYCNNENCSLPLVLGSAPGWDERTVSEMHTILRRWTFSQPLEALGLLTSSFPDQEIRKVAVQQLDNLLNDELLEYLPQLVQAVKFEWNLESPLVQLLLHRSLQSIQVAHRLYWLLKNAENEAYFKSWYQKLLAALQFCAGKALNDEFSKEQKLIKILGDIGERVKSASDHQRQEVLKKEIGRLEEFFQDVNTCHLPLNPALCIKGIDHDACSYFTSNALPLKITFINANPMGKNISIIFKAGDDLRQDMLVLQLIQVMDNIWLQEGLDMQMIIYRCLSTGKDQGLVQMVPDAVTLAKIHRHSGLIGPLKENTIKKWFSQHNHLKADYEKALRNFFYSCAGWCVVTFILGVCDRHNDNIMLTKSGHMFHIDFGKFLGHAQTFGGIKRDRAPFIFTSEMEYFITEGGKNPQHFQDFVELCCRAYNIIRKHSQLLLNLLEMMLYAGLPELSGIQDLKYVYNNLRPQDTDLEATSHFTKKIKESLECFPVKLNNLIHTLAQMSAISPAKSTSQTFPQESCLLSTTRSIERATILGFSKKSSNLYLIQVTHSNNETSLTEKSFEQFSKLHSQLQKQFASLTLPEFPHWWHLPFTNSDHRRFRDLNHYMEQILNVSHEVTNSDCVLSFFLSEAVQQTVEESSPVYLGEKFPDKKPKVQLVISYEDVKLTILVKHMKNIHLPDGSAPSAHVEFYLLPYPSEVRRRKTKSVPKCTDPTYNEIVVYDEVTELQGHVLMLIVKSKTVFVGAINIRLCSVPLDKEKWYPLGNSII

[6] = biological target: Serine/threonine-protein kinase DCLK3 (Homo sapiens) (UniProt Q9C098); experiment: Inhibition of wild-type human partial length DCAMKL3 (E140 to V628 residues) expressed in bacterial expression system assessed as residual activity at 1 uM by Kinomescan method relative to control
[7] = biological target: Casein kinase I isoform gamma-2 (Homo sapiens) (UniProt P78368); experiment: Inhibition of wild-type human full length CSNK1G2 (M1 to K415 residues) expressed in bacterial expression system assessed as residual activity at 1 uM by Kinomescan method relative to control
[8] = biological target: Serine/threonine-protein kinase PAK 6 (Homo sapiens) (UniProt Q9NQU5); experiment: Inhibition of wild-type human partial length PAK6 (N298 to C681 residues) expressed in bacterial expression system assessed as residual activity at 1 uM by Kinomescan method relative to control
[9] = biological target: Transient receptor potential cation channel subfamily M member 6 (Homo sapiens) (UniProt Q9BX84); experiment: Inhibition of wild-type human partial length TRPM6 (Q1723 to I1998 residues) expressed in mammalian expression system assessed as residual activity at 1 uM by Kinomescan method relative to control
[10] = biological target: Cyclin-dependent kinase 19 (Homo sapiens) (UniProt Q9BWU1); experiment: Inhibition of wild-type human partial length CDK11 (M1 to N360 residues) expressed in bacterial expression system assessed as residual activity at 1 uM by Kinomescan method relative to control
Cyclin-dependent kinase 19 (Homo sapiens), sequence (Q9BWU1 whole entry, the tested form may be a part): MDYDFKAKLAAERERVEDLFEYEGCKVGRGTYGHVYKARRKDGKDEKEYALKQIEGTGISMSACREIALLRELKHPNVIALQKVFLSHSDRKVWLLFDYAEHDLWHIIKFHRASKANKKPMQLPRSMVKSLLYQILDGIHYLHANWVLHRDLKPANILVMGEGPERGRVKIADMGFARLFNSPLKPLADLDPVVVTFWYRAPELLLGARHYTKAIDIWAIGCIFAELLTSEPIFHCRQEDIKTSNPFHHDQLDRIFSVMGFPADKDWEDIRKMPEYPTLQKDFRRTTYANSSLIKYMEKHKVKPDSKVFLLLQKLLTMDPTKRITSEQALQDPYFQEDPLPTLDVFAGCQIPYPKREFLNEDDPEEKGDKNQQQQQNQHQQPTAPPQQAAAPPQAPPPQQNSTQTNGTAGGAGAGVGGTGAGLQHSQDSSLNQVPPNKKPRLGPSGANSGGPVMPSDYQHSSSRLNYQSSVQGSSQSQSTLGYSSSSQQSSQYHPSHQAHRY

[11] = biological target: Cyclin-dependent kinase 8 (Homo sapiens) (UniProt P49336); experiment: Inhibition of wild-type human partial length CDK8 (M1 to T360 residues) expressed in bacterial expression system assessed as residual activity at 1 uM by Kinomescan method relative to control
[12] = biological target: Tyrosine-protein kinase JAK3 (Homo sapiens) (UniProt P52333); experiment: Inhibition of wild-type human partial length JAK3 JH1 catalytic domain (I781 to S1124 residues) expressed in mammalian expression system assessed as residual activity at 1 uM by Kinomescan method relative to control
Tyrosine-protein kinase JAK3 (Homo sapiens), sequence (P52333 whole entry, the tested form may be a part): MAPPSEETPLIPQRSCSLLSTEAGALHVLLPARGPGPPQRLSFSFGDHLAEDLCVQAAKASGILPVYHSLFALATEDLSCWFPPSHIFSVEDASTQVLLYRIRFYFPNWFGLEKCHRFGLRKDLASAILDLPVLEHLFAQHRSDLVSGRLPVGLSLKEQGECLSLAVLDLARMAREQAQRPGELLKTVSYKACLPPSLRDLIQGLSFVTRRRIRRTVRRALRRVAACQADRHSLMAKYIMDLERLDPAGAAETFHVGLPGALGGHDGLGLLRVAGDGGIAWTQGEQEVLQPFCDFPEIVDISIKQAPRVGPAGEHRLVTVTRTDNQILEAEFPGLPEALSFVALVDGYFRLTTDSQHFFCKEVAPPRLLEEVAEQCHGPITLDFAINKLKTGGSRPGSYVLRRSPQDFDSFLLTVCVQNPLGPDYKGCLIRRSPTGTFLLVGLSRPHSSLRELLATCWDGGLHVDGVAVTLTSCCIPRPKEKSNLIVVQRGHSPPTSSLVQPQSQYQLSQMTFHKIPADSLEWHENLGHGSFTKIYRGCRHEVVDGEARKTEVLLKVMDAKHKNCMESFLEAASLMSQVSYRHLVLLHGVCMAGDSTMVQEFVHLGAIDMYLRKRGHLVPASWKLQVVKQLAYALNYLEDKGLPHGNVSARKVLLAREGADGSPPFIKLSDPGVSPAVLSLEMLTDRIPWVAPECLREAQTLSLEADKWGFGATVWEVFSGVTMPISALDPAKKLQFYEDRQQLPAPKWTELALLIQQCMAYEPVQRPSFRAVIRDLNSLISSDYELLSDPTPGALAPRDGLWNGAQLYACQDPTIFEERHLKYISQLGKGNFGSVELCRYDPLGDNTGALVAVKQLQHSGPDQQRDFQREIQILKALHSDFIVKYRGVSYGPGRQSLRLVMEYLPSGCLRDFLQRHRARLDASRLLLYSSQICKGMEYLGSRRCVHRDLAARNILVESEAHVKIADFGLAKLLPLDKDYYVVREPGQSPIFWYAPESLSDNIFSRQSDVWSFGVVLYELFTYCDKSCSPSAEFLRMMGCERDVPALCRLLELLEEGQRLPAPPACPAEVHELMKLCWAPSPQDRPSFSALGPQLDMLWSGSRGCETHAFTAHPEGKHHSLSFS

[13] = test system: Hepatocyte growth factor receptor (Homo sapiens), P08581 [M1250T]; experiment: Inhibition of human partial length MET M1250T mutant (D1010 to S1367 residues) expressed in bacterial expression system assessed as residual activity at 1 uM by Kinomescan method relative to control
[14] = test system: Tyrosine-protein kinase ABL1 (Homo sapiens), P00519 [F317I]; experiment: Inhibition of human non-phosphorylated ABL1 F317I mutant (S229 to K512 residues) expressed in mammalian expression system assessed as residual activity at 1 uM by Kinomescan method relative to control
[15] = biological target: Insulin receptor (Homo sapiens) (UniProt P06213); experiment: Inhibition of wild-type human partial length INSR (P997 to E1318 residues) expressed in mammalian expression system assessed as residual activity at 1 uM by Kinomescan method relative to control
[16] = biological target: Serine/threonine-protein kinase PAK 4 (Homo sapiens) (UniProt O96013); experiment: Inhibition of wild-type human partial length PAK4 (Q144 to R438 residues) expressed in bacterial expression system assessed as residual activity at 1 uM by Kinomescan method relative to control
[17] = test system: Epidermal growth factor receptor (Homo sapiens), P00533 [UNDEFINED MUTATION]; experiment: Inhibition of human partial length EGFR L747-T751del/Sins mutant expressed in bacterial expression system assessed as residual activity at 1 uM by Kinomescan method relative to control
Epidermal growth factor receptor (Homo sapiens), P00533 [UNDEFINED MUTATION], sequence (P00533 whole entry, looked up, stated change not applied, the tested form may be a part): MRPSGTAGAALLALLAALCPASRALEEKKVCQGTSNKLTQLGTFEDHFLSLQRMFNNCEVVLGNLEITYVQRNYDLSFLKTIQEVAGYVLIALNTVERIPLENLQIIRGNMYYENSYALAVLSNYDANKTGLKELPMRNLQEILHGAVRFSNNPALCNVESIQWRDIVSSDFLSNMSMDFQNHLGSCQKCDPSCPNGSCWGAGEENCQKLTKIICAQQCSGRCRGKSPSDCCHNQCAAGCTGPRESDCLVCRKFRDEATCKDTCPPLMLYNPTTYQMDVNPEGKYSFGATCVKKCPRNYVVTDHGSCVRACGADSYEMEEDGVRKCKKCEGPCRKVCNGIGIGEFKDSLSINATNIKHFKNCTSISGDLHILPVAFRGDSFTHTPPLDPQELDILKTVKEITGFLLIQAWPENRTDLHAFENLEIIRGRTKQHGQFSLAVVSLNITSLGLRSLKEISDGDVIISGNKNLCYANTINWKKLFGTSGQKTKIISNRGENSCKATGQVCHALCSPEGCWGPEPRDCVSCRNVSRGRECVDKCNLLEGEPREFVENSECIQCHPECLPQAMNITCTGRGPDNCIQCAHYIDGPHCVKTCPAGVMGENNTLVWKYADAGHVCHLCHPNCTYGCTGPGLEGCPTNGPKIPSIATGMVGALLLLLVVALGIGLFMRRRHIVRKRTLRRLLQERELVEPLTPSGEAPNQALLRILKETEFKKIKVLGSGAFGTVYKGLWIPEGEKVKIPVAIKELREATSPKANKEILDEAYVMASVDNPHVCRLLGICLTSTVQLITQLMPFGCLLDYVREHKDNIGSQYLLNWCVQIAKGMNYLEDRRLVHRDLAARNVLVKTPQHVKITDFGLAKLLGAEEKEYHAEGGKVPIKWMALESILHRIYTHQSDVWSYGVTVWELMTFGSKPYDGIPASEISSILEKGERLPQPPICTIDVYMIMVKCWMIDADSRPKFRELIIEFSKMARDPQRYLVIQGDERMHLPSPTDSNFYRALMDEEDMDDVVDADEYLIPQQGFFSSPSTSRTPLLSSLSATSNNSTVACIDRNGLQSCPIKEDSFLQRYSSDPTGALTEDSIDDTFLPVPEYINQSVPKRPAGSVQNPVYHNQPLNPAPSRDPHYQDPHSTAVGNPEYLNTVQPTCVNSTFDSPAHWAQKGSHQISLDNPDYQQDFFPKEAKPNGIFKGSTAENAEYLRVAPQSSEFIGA

[18] = biological target: Platelet-derived growth factor receptor beta (Homo sapiens) (UniProt P09619); experiment: Inhibition of wild-type human partial length PDGFRB (V582 to Y1009 residues) expressed in bacterial expression system assessed as residual activity at 1 uM by Kinomescan method relative to control
[19] = biological target: Receptor-type tyrosine-protein kinase FLT3 (Homo sapiens) (UniProt P36888); experiment: Inhibition of wild-type human partial length autoinhibited FLT3 (H564 to Y969 residues) expressed in mammalian expression system assessed as residual activity at 1 uM by Kinomescan method relative to control
[20] = biological target: Ephrin type-A receptor 7 (Homo sapiens) (UniProt Q15375); experiment: Inhibition of wild-type human partial length EPHA7 (Y608 to S912 residues) expressed in bacterial expression system assessed as residual activity at 1 uM by Kinomescan method relative to control
[21] = biological target: Serine/threonine-protein kinase LATS2 (Homo sapiens) (UniProt Q9NRM7); experiment: Inhibition of wild-type human partial length LATS2 (Q641 to V1088 residues) expressed in mammalian expression system assessed as residual activity at 1 uM by Kinomescan method relative to control
[22] = Elimination half-life in Sprague-Dawley rat at 1 mg/kg, iv by LC-MS/MS method; type: ADME, organism-based; details: in vivo, read-out: beta t1/2 (converted)
[23] = biological target: Phosphatidylinositol 4,5-bisphosphate 3-kinase catalytic subunit gamma isoform (Homo sapiens) (UniProt P48736); experiment: Inhibition of wild-type human partial length PIK3CG (S144 to A1102 residues) expressed in mammalian expression system assessed as residual activity at 1 uM by Kinomescan method relative to control
[24] = biological target: Mitogen-activated protein kinase kinase kinase kinase 1 (Homo sapiens) (UniProt Q92918); experiment: Inhibition of wild-type human full length HPK1 (M1 to R799 residues) expressed in bacterial expression system assessed as residual activity at 1 uM by Kinomescan method relative to control
[25] = biological target: Inhibitor of nuclear factor kappa-B kinase subunit epsilon (Homo sapiens) (UniProt Q14164); experiment: Inhibition of wild-type human full length IKK-epsilon (M1 to V716 residues) expressed in mammalian expression system assessed as residual activity at 1 uM by Kinomescan method relative to control

Q: For C=CC(=O)Nc1cc(Nc2cc(-c3cccc(NC(=O)c4ccc(C(C)(C)C)cc4)c3C)cn(C)c2=O)ccc1C(=O)N1CCOCC1, which Activity [1] is on record?
A: 100%

Q: What about the IC50 [2] of the same molecule?
A: 7 nM

Q: What about the Activity [3] of the same molecule?
A: 100%

Q: What about the Activity [4] of the same molecule?
A: 92%

Q: What about the Activity [5] of the same molecule?
A: 95%

Q: And the Activity [6]?
A: 100%

Q: What about the Activity [7] of the same molecule?
A: 94%

Q: And the Activity [8]?
A: 100%

Q: What about the Activity [9] of the same molecule?
A: 99%

Q: What about the Activity [10] of the same molecule?
A: 100%

Q: And the Activity [11]?
A: 100%

Q: What about the Activity [12] of the same molecule?
A: 79%

Q: And the Activity [13]?
A: 98%

Q: And the Activity [14]?
A: 78%

Q: And the Activity [15]?
A: 100%

Q: And the Activity [16]?
A: 94%

Q: And the Activity [17]?
A: 100%

Q: What about the Activity [18] of the same molecule?
A: 92%

Q: And the Activity [19]?
A: 100%

Q: And the Activity [20]?
A: 98%

Q: What about the Activity [21] of the same molecule?
A: 100%

Q: What about the half-life [22] of the same molecule?
A: 13.8 min

Q: And the Activity [23]?
A: 100%

Q: And the Activity [24]?
A: 100%

Q: And the Activity [25]?
A: 100%
